Measurements reported in patent US20160150784A1, “SYNERGISTIC PESTICIDAL COMPOSITIONS AND RELATED METHODS” (Dow AgroSciences LLC, priority 2013, published 2016).
Where “and” joins values, the source holds several entries; their conditions need not be identical. Equal entries are not always repeated.

Key:
[1] = tested on: diamondback moth, Plutella xylostella; assay: Cabbage leaf disc bioassay (track sprayer, 400 L/Ha) on second instar diamondback moths, percent control, synergy by Colby's equation; type: in vivo; settings: single active
Source text: (§1) The method described in Colby S. R., “Calculating Synergistic and Antagonistic Responses of Herbicide Combinations,” Weeds, 1967, 15, 20-22 was used to determine an existence of synergic effect between the ryanodine receptor modulator compound and the pesticide (I), (II), or any agriculturally acceptable salt thereof in the formulated pesticidal composition. In this method, the percent insect control of the formulated pesticidal composition as observed in the study was compared to the “expected” percent control (E) as calculated by equation (1) (hereinafter “Colby's equation”) below: […]
(§2) where • X is the percentage of control with the first pesticide at a given rate (p), • Y is the percentage of control with the second pesticide at a given rate (q), and • E is the expected control by the first and second pesticide at a rate of p+q.
Bioassays were performed for different active compounds. Cabbage plants with about two to three new-growth—true leaf stage were treated with different pesticides using a track sprayer application at 400 L/Ha spray volume. Three second instar diamondback moths, Plutella xylostella, were infested onto each leaf disc.
Bioassays were performed for different active compounds. Cabbage plants with about two to three new-growth—true leaf stage were treated with different pesticides using a track sprayer at a rate of 400 L/Ha. Three second instar diamondback moths, Plutella xylostella, were infested onto each leaf disc.

[2] = tested on: brown stink bug, Euschistus heros; assay: Diet bioassay on second-instar nymphs of brown stink bug, percent control, synergy by Colby's equation; type: in vivo; settings: single active, dose rate 0.04 weight %
Source text: as §1, §2
The percent control of the pesticidal composition against brown stink bug, Euschistus heros, was determined as the “Observed” action, and compared to those obtained by using about 0.04 weight % of compound II, and using about 0.000156 weight % of cyantraniliprole alone. The “Colby's Expected Action” was calculated using Colby's equation as discussed previously.

## Cc1cc(C(F)(C(F)(F)F)C(F)(F)F)ccc1NC(=O)c1cccc(I)c1C(=O)NC(C)(C)CS(C)(=O)=O [Flubendiamide]
[1]; dose rate 0.0003125 weight %
  % Control Three Days After Treatment: 8.70%

## CCN(C(=O)CCSCCC(F)(F)F)c1cn(-c2cccnc2)nc1Cl [Compound I, N-(3-chloro-1-(pyridin-3-yl)-1H-pyrazol-4-yl)-N-ethyl-3-((3,3,3-trifluoropropyl)thio)propanamide]
[1]; dose rate 0.0025 weight %
  % Control Three Days After Treatment: 4.35% and 0%

## CNC(=O)c1cc(Cl)cc(C)c1NC(=O)c1cc(Br)nn1-c1ncccc1Cl [Chlorantraniliprole, 3-bromo-N-[4-chloro-2-methyl-6-[(methylamino)carbonyl]phenyl]-1-(3-chloro-2-pyridinyl)-1H-pyrazole-5-carboxamide]
[1]; dose rate 0.0000347 weight %
  % Control Three Days After Treatment: 25%
[1]; dose rate 0.000104 weight %
  % Control Three Days After Treatment: 62.5%
[1]; dose rate 0.0003125 weight %
  % Control Three Days After Treatment: 66.67%

## CCN(C(=O)CC[S+]([O-])CCC(F)(F)F)c1cn(-c2cccnc2)nc1Cl (stereo not drawn) [Compound II, N-(3-chloro-1-(pyridin-3-yl)-1H-pyrazol-4-yl)-N-ethyl-3-((3,3,3-trifluoropropyl)sulfinyl)propanamide]
[2]
  % Control Six Days After Treatment: 0%
